Measured values taken from patent publication US7803930B2, “Antisense modulation of apolipoprotein B-expression” (Isis Pharmaceuticals, Inc., priority 2002, dated 2010).
In the oligonucleotide strings, read from the 5' end, every base follows the letter of its sugar. An asterisk marks phosphorothioate; unmarked linkages are phosphodiester. Other units and linkages are bracketed, terminal groups are in braces. A string of capitals states the bases alone. e = 2'-O-(2-methoxyethyl) (MOE); [5mC] = 5-methylcytosine; d = 2'-deoxy (DNA)

Columns and labels:
lipoprotein(a) = experiment: Lipoprotein(a) particle secretion from primary human hepatocytes, ELISA; assay type: cell-based; conditions: 24 hours
Experimental: Primary human hepatocytes (InVitro Technologies, Baltimore, Md.), cultured and transfected as described herein, were treated for 24 hours with 50 or 150 nM of ISIS 271009 (SEQ ID NO: 319), 281625 (SEQ ID NO: 224), 301012 (SEQ ID NO: 247) or 301027 (SEQ ID NO: 262). Cells were also treated with 150 nM of the control oligonucleotides ISIS 113529 (SEQ ID NO: 859) or ISIS 13650 (SEQ ID NO: 806). Untreated cells served as a control. Following 24 hours of oligonucleotide treatment, the amount of lipoprotein(a) in the culture medium collected from the treated cells was measured using a commercially available ELISA kit (ALerCHEK Inc., Portland, Me.). The results are the average of three experiments and are expressed as percent change in lipoprotein(a) secretion relative to untreated controls.

[1] = test system: human apolipoprotein B mRNA; experiment: Inhibition of human apolipoprotein B mRNA levels in HepG2 cells, quantitative real-time PCR; assay type: cell-based; conditions: for % inhibition of apolipoprotein B mRNA levels / % inhibition 37 nM / % inhibition 75 nM / % inhibition 150 nM / % inhibition 300 nM: normalized to untreated control; for % inhibition of apolipoprotein B mRNA levels: average of two experiments; for % inhibition 37 nM / % inhibition 75 nM / % inhibition 150 nM / % inhibition 300 nM: Table 19 dose response; for % INHIB (inhibition of human apolipoprotein B mRNA levels): HepG2 cells treated with 150 nM of compound, quantitative real-time PCR
Method in brief: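 HepG2 cells at 80% confluency were transfected with antisense oligonucleotide using 3.75 μg/mL Lipofectin in Opti-MEM for 4-7 h and harvested 16-24 h after treatment. Apolipoprotein B mRNA was measured by real-time RT-PCR and normalized to GAPDH or RiboGreen total RNA. Percent inhibition came from untreated-control standard curves.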

[2] = Toxicity in C57BL/6 mice, two weeks (Example 48): liver enzyme levels, body, liver and spleen weight; assay type: in vivo, mouse; set-up: Weight BODY / Weight LIVER / Weight SPLEEN: unit not given here; conditions: 25 mg/kg i.p. twice a week
Experimental: C57BL/6 mice were divided into two groups—one group receiving oligonucleotide treatment and control animals receiving saline treatment. After overnight fasting, mice were dosed intraperitoneally twice a week with saline or 25 mg/kg of one of several oligonucleotides for two weeks. The antisense oligonucleotides used in the present study were ISIS 233172 (SEQ ID NO: 835) and ISIS 233175 (SEQ ID NO: 838), both targeted to rabbit apolipoprotein B, and ISIS 281625 (SEQ ID NO: 224), ISIS 301012 (SEQ ID NO: 247), and ISIS 301027 (SEQ ID NO: 262), targeted to human apolipoprotein B. At study termination and forty eight hours after the final injections, animals were sacrificed and evaluated for liver enzyme levels, body weight, liver weight, and spleen weight.

[3] = HepG2 cells, 12.5 nM oligonucleotide
[4] = HepG2 cells, 37 nM oligonucleotide
[5] = HepG2 cells, 75 nM oligonucleotide
[6] = HepG2 cells, 150 nM oligonucleotide
[7] = HepG2 cells, 300 nM oligonucleotide

| Substance | % Change in lipoprotein(a) secretion (lipoprotein(a); 150 nM) | % inhibition of apolipoprotein B mRNA levels [1, 3] | % inhibition of apolipoprotein B mRNA levels [1, 4] | % inhibition of apolipoprotein B mRNA levels [1, 5] | % inhibition of apolipoprotein B mRNA levels [1, 6] | % inhibition of apolipoprotein B mRNA levels [1, 7] | % inhibition 37 nM ([1]; HepG2 cells) | % inhibition 75 nM ([1]; HepG2 cells) | % inhibition 150 nM ([1]; HepG2 cells, 150 nM) | % inhibition 300 nM ([1]; HepG2 cells) | % Change in lipoprotein(a) secretion (lipoprotein(a); 50 nM) | % INHIB (inhibition of human apolipoprotein B mRNA levels) ([1]; averages from two experiments) | Liver Enzymes ALT [2] | Liver Enzymes AST [2] | Weight BODY [2] | Weight LIVER [2] | Weight SPLEEN [2] | also measured |
| --- | --- | --- | --- | --- | --- | --- | --- | --- | --- | --- | --- | --- | --- | --- | --- | --- | --- | --- |
| 113529 (antisense e[5mC]*eT*e[5mC]*eT*eT*dA*d[5mC]*dT*dG*dT*dG*d[5mC]*dT*dG*dT*eG*eG*eA*e[5mC]*eA) [compound 113529] | +14% |  |  |  |  |  |  |  |  |  |  |  |  |  |  |  |  |  |
| 271009 (antisense eG*e[5mC]*e[5mC]*eT*e[5mC]*dA*dG*dT*d[5mC]*dT*dG*d[5mC]*dT*dT*d[5mC]*eG*e[5mC]*eG*e[5mC]*e[5mC]) [compound 271009] | −42% | 67% | 86% | 92% | 94% | 95% | 82% | 91% | 94% | 96% | −25% |  |  |  |  |  |  | % INHIB ([1]; Table 12, HepG2 cells, 150 nM, averages from two experiments): 75% |
| 301027 (eG*e[5mC]*eT*e[5mC]*eA*d[5mC]*dT*dG*dT*dA*dT*dG*dG*dT*dT*eT*eT*eA*eT*e[5mC]; antisense) [compound 301027] | −44% |  |  |  |  |  | 80% | 90% | 95% | 96% | −33% | 89% | 221.3 IU/L | 455.3 IU/L | 21.2 | 1.3 | 0.1 |  |
| 301012 (eG*e[5mC]*e[5mC]*eT*e[5mC]*dA*dG*dT*d[5mC]*dT*dG*d[5mC]*dT*dT*d[5mC]*eG*e[5mC]*eA*e[5mC]*e[5mC]) [compound 301012] | −37% | 63% | 79% | 90% | 92% | 95% |  |  |  |  | −27% | 87% | 21.2 IU/L | 50.6 IU/L | 21.3 | 1.1 | 0.1 | % Change in apolipoprotein B mRNA expression ([1]; HepG2 cells, 10 nM, 24 hour (Table 41)): −51%; % Change in apolipoprotein B mRNA expression ([1]; HepG2 cells, 50 nM, 24 hour (Table 40)): −44%; % Change in apolipoprotein B mRNA expression ([1]; HepG2 cells, 50 nM, 24 hour (Table 41)): −72%; % Change in apolipoprotein B mRNA expression ([1]; HepG2 cells, 150 nM, 24 hour (Table 40)): −75%; % Change in apolipoprotein B mRNA expression ([1]; HepG2 cells, 150 nM, 24 hour (Table 41)): −92% |
| ISIS 301027: SEQ ID NO: 262, 2′-MOE gapmer targeted to human apolipoprotein B (antisense eG*e[5mC]*eT*e[5mC]*eA*d[5mC]*dT*dG*dT*dA*dT*dG*dG*dT*dT*eT*eT*eA*eT*e[5mC]) |  |  |  |  |  |  |  |  |  |  |  |  |  |  |  |  |  | levels of liver enzymes relative to saline treatment [2]: drastically increased |
| 281625 (antisense eA*eG*eG*eT*eT*dA*d[5mC]*d[5mC]*dA*dG*d[5mC]*d[5mC]*dA*d[5mC]*dA*eT*eG*e[5mC]*eA*eG) [compound 281625] | −24% | 44% | 66% | 83% | 85% | 94% | 62% | 76% | 84% | 94% | −26% | 94% | 36.2 IU/L | 89.5 IU/L | 20.9 | 1.2 | 0.1 |  |
